Type in all cases: cell-based
The test system of experiment [1] is SKBR3 (PI3Kα wild type) cells. In words: CellTiter-Glo 2.0 luminescent cell viability assay, 72 hours, SKBR3 cells. Particulars: Homo sapiens, SK-BR-3, 72 h, SKBR3 (PI3Kα wild type) cells, CellTiter-Glo, approximately 72 hours; read-out: SKBR3 (WT) Viability IC50. In short, it runs like this:
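Viability measured via CTG luminescence following roughly 72 hours of compound exposure at 37° C. Dosing used a 10 um starting concentration diluted 1:4 over 10 points; percent-of-vehicle data fitted with a variable-slope four-parameter model for IC50.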
For orientation: ATP-based viability assays read luminescence as a measure of living cells.

Experiment [2] has as its system T47D (PI3Kα H1047R mutant) cells. In words: CellTiter-Glo 2.0 luminescent cell viability assay, 72 hours, T47D cells. The settings on record: Homo sapiens, T47D, 72 h, T47D (PI3Kα H1047R mutant) cells, CellTiter-Glo, approximately 72 hours; read-out: T47D (H1047R mutant) Viability IC50. Summed up:
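Viability was measured by CellTiter-Glo 2.0 luminescence after approximately 72 h of compound exposure at 37° C. Plating was 1000 cells per well the day before dosing, with ten 1:4 dilutions from a 10 µM top concentration. Values as percent of vehicle were fitted by variable-slope log(inhibitor) regression to give IC50.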

The test system is the same in experiment [3]. In words: Inhibition of pAKT formation, alphaLISA SureFire Ultra AKT 1/2/3 (pS473), T47D cells. The settings on record: Homo sapiens, T47D, T47D (PI3Kα H1047R mutant) cells; inhibition of pAKT (pS473) formation; approximately one hour or 24 hours treatment; read-out: T47D pAKT (H1047R mutant) IC50. Summed up:
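AKT Ser473 phosphorylation was quantified by alphaLISA SureFire Ultra after roughly 1 h or 24 h compound exposure at 37 °C. Cells were T47D (12,000/well in HBSS), treated with a 10-point 1:4 series starting at 10.4 μM. Percent of control used alpelisib background and DMSO reference, and IC50 came from four-parameter logistic fitting.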

pIC50: −log10 of the molar value.

As usually defined, the pIC50 is the IC50 on a negative log10 scale, so that one unit is a factor of ten.

As to `Cc1cc([C@@H](C)Nc2ccccc2C(=O)O)c2nc(N3CCN(c4ccccc4)CC3)c(C#N)c(=O)n2c1` [Example 10-98, (R)-2-((1-(3-cyano-7-methyl-4-oxo-2-(4-phenylpiperazin-1-yl)-4H-pyrido[1,2-a]pyrimidin-9-yl)ethyl)amino)benzoic acid], the pIC50 in experiment [1] is less than 5.00; in experiment [2] it was 7.07; in experiment [3] it was 8.67.

On to `Cc1cc([C@@H](C)Nc2ccccc2C(=O)O)c2nc(N3CC4C(C3)C4(F)F)c(C#N)c(=O)n2c1` (stereo partly drawn) [Example 10-100, 2-(((1R)-1-(3-cyano-2-(6,6-difluoro-3-azabicyclo[3.1.0]hexan-3-yl)-7-methyl-4-oxo-4H-pyrido[1,2-a]pyrimidin-9-yl)ethyl)amino)benzoic acid], for which the pIC50 in experiment [1] is less than 5.00; in experiment [2] it was 7.06; in experiment [3] it was 8.42.

As to `Cc1cc([C@@H](C)Nc2ccccc2C(=O)O)c2nc(N3CCN(c4ccc(C#N)cc4C)CC3)c(C#N)c(=O)n2c1` [Example 10-101, (R)-2-((1-(3-cyano-2-(4-(4-cyano-2-methylphenyl)piperazin-1-yl)-7-methyl-4-oxo-4H-pyrido[1,2-a]pyrimidin-9-yl)ethyl)amino)benzoic acid], the pIC50 in experiment [1] was less than 5.00; in experiment [2], 7.06; in experiment [3], 8.24.

Take `Cc1cc([C@@H](C)Nc2ccccc2C(=O)O)c2nc(N3CC4CC(C3)C4(F)F)c(C)c(=O)n2c1` [Example 10-102, 2-(((1R)-1-(2-(6,6-difluoro-3-azabicyclo[3.1.1]heptan-3-yl)-3,7-dimethyl-4-oxo-4H-pyrido[1,2-a]pyrimidin-9-yl)ethyl)amino)benzoic acid]: the values for the pIC50 in experiment [1], in experiment [2] and in experiment [3] were less than 5.00, 7.06 and 8.43, respectively.

In the case of `Cc1cc([C@@H](C)Nc2ccccc2C(=O)O)c2nc(C3CCN(c4ccc(C#N)cc4)CC3)c(C#N)c(=O)n2c1` [Example 10-103, (R)-2-((1-(3-cyano-2-(1-(4-cyanophenyl)piperidin-4-yl)-7-methyl-4-oxo-4H-pyrido[1,2-a]pyrimidin-9-yl)ethyl)amino)benzoic acid], the pIC50 in experiment [1] was 5.06; in experiment [2], 7.06; in experiment [3], 8.69.

`Cc1cc([C@@H](C)Nc2ccccc2C(=O)O)c2nc(N3CCC4(CC4)C(F)(F)C3)c(C)c(=O)n2c1` [Example 10-107, (R)-2-((1-(2-(4,4-difluoro-6-azaspiro[2.5]octan-6-yl)-3,R7-dimethyl-4-oxo-4H-pyrido[1,2-a]pyrimidin-9-yl)ethyl)amino)benzoic acid]: the figures for the pIC50 in experiment [1], in experiment [2] and in experiment [3] were less than 5.00, 7.03 and 8.17, respectively.

With `Cc1cc([C@@H](C)Nc2ccccc2C(=O)O)c2nc(N3CCC4(CC4)C(F)(F)C3)c(C#N)c(=O)n2c1` [Example 10-108, (R)-2-((1-(3-cyano-2-(4,4-difluoro-6-azaspiro[2.5]octan-6-yl)-7-methyl-4-oxo-4H-pyrido[1,2-a]pyrimidin-9-yl)ethyl)amino)benzoic acid], the pIC50 is less than 5.00 in experiment [1], 7.03 in experiment [2] and 8.54 in experiment [3].

For `Cc1cc([C@@H](C)Nc2ccccc2C(=O)O)c2nc(N3CCN(c4ccc(C#N)cc4)CC3C)c(C#N)c(=O)n2c1` (stereo partly drawn) [Example 10-109, 2-(((1R)-1-(3-cyano-2-(4-(4-cyanophenyl)-2-methylpiperazin-1-yl)-7-methyl-4-oxo-4H-pyrido[1,2-a]pyrimidin-9-yl)ethyl)amino)benzoic acid], the negative logarithm of the IC50 (pIC50) is 5.05 in experiment [1], 7.03 in experiment [2] and 8.57 in experiment [3].

Consider `Cc1cc([C@@H](C)Nc2ccccc2C(=O)O)c2nc(N3CCN(c4ccc(C#N)cc4)C(C)C3)c(C)c(=O)n2c1` (stereo partly drawn) [Example 10-110, 2-(((1R)-1-(2-(4-(4-cyanophenyl)-3-methylpiperazin-1-yl)-3,7-dimethyl-4-oxo-4H-pyrido[1,2-a]pyrimidin-9-yl)ethyl)amino)benzoic acid], for which the pIC50 in experiment [1] was less than 5.00; in experiment [2] it was 7.03; in experiment [3], 8.98.

On to `Cc1cc([C@@H](C)Nc2ccccc2C(=O)O)c2nc(N3CCC4(CC3)COC4)c(C)c(=O)n2c1` [Example 10-111, (R)-2-((1-(3,7-dimethyl-4-oxo-2-(2-oxa-7-azaspiro[3.5]nonan-7-yl)-4H-pyrido[1,2-a]pyrimidin-9-yl)ethyl)amino)benzoic acid], for which the pIC50 in experiment [1] is less than 5.00; in experiment [2], 7.02; in experiment [3], 8.32.

With `Cc1cc([C@@H](C)Nc2ccccc2C(=O)O)c2nc(N3CCN(c4ncc(C#N)cn4)CC3)c(C#N)c(=O)n2c1` [Example 10-112, (R)-2-((1-(3-cyano-2-(4-(5-cyanopyrimidin-2-yl)piperazin-1-yl)-7-methyl-4-oxo-4H-pyrido[1,2-a]pyrimidin-9-yl)ethyl)amino)benzoic acid], the pIC50 is less than 5.00 in experiment [1], 7.01 in experiment [2] and 8.21 in experiment [3].

For `Cc1cc([C@@H](C)Nc2ccccc2C(=O)O)c2nc(N3CCC(F)(F)CC3)c(Cl)c(=O)n2c1` [Example 10-114, (R)-2-((1-(3-chloro-2-(4,4-difluoropiperidin-1-yl)-7-methyl-4-oxo-4H-pyrido[1,2-a]pyrimidin-9-yl)ethyl)amino)benzoic acid], the pIC50 in experiment [1] is less than 5.00; in experiment [2] it was 7.01; in experiment [3], 8.59.

As for `Cc1cc([C@@H](C)Nc2ccc(C)nc2C(=O)O)c2nc(NC3CCC3)c(C#N)c(=O)n2c1` [Example 10-115, (R)-3-((1-(3-cyano-2-(cyclobutylamino)-7-methyl-4-oxo-4H-pyrido[1,2-a]pyrimidin-9-yl)ethyl)amino)-6-methylpicolinic acid], the pIC50 in experiment [1] is less than 5.00; in experiment [2], 7.01; in experiment [3], 7.23.

Turning to `COC1CCN(c2nc3c([C@@H](C)Nc4ccccc4C(=O)O)cc(C)cn3c(=O)c2C)CC1(F)F` (stereo partly drawn) [Example 10-116, 2-(((1R)-1-(2-(3,3-difluoro-4-methoxypiperidin-1-yl)-3,7-dimethyl-4-oxo-4H-pyrido[1,2-a]pyrimidin-9-yl)ethyl)amino)benzoic acid], the pIC50 in experiment [1] was less than 5.00; in experiment [2], 7.00; in experiment [3], 8.80.

On to `Cc1cc([C@@H](C)Nc2ccccc2C(=O)O)c2nc(N3CCN(C(=O)c4ccccc4)CC3)c(C)c(=O)n2c1` [Example 10-117, (R)-2-((1-(2-(4-benzoylpiperazin-1-yl)-3,7-dimethyl-4-oxo-4H-pyrido[1,2-a]pyrimidin-9-yl)ethyl)amino)benzoic acid], for which the pIC50 in experiment [1] was 5.43; in experiment [2], 7.00; in experiment [3], 8.67.

In the case of `Cc1cc([C@@H](C)Nc2ccccc2C(=O)O)c2nc(C3CCN(c4ccc(C#N)cc4)CC3)c(C)c(=O)n2c1` [Example 10-120, (R)-2-((1-(2-(1-(4-cyanophenyl)piperidin-4-yl)-3,7-dimethyl-4-oxo-4H-pyrido[1,2-a]pyrimidin-9-yl)ethyl)amino)benzoic acid], the negative-log IC50 (pIC50) was less than 5.00 in experiment [1], 6.99 in experiment [2] and 8.65 in experiment [3].

On to `COC1CCN(c2nc3c([C@@H](C)Nc4ccccc4C(=O)O)cc(C)cn3c(=O)c2C#N)CC1` [Example 10-123, (R)-2-((1-(3-cyano-2-(4-methoxypiperidin-1-yl)-7-methyl-4-oxo-4H-pyrido[1,2-a]pyrimidin-9-yl)ethyl)amino)benzoic acid], for which the pIC50 in experiment [1] is less than 5.00; in experiment [2] it was 6.98; in experiment [3], 8.62.

The values above are taken from patent US20260078120A1, “SUBSTITUTED PYRIDOPYRIMIDINONES” (MIRATI THERAPEUTICS, INC., priority 2022, published 2026).
